For this experiment, the target named is T1, recombinant EphB4 kinase (Homo sapiens, UniProt P54760).
T1 construct: purchased ProQinase GmbH, Freiburg, Germany
T1 sequence (P54760 16-987): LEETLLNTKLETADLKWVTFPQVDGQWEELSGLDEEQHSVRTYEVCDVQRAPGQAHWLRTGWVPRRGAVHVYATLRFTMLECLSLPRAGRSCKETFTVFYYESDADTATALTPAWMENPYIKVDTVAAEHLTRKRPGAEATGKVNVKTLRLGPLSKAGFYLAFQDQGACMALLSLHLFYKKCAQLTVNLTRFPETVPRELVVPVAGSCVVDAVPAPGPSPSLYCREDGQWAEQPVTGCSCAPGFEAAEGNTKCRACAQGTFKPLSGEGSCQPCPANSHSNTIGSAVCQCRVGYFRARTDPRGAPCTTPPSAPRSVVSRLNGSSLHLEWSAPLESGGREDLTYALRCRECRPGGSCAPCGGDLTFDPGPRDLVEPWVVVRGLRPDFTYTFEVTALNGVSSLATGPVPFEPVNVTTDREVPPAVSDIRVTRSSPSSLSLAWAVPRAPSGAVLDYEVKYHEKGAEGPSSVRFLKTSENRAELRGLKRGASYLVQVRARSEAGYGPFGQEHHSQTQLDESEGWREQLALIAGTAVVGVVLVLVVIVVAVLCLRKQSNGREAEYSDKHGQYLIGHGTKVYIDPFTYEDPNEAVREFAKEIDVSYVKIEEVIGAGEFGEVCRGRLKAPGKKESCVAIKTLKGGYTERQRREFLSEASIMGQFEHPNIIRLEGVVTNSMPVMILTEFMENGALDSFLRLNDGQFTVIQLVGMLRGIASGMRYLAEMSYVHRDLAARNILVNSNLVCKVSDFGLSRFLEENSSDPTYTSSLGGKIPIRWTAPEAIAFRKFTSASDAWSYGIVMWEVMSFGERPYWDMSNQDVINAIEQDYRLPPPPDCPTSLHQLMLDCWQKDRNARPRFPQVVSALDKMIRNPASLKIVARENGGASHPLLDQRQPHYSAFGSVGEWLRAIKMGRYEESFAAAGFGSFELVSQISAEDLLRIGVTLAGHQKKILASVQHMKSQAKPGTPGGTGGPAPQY
The experiment can be described thus: Test System for EphB4 (HTRF kinase assay). As to conditions: polyGluAlaTyr substrate, 2 μM ATP, HTRF readout. Type of experiment: biochemical. The method, then: A mixture that consists of 20 ng/ml of recombinant EphB4 kinase (ProQinase GmbH, Freiburg, Germany), 2.67 μg/ml of polyGluAlaTyr, 2 μM of ATP, 25 mmol of HEPES (pH 7.3), 5 mmol of MgCl2, 1 mmol of MnCl2, 2 mmol of DTT, 0.1 mmol of NaVO4, 1% (v/v) of glycerol, 0.02% NP40, EDTA-free protease inhibitors (Complete Roche Company, 1 tablet in 50 ml) is incubated for 10 minutes at 20° C. Test substances are dissolved in 100% DMSO and introduced in a 0.017× volume before the reaction begins. 60 minutes after 1.7× volume of a solution of 50 mmol of Hepes, pH 7.0, 0.2% BSA, 0.14 μg/ml of PT66-Europium, 3.84 μg/ml of SA-XL665, 75 mmol of EDTA is added, the batch is measured in a Discovery HTRF measuring device of the PerkinElmer Company.

Where [1] appears, read: read-out: IC50 of EphB4 kinase inhibition (upper bound).

Drawing on patent US20060167035A1, “Quinoline derivative, its use, production and pharmaceutical agents containing the latter” (priority 2004, published 2006), this text covers IC50 for six compounds.

pIC50: −log10 of the molar value. Read-outs that look alike come from different tables or passages of the source. A value given as a limit tells only on which side of the number the result lay.

As usually defined, the pIC50 is the negative decadic logarithm of the IC50, by convention in mol/L.

Regarding `Cc1ccc(O)cc1Nc1ccnc2ccc3sccc3c12` [Example 1, 4-Methyl-3-(thieno[3,2-f]quinolin-9-ylamino)-phenol], the pIC50 under setting [1] was over 4.60. For `Cc1nc2c(ccc3nccc(Nc4cc(O)ccc4C)c32)s1` [Example 2, 4-Methyl-3-(2-methyl-thiazolo[4,5-f]quinolin-9-ylamino)-phenol], the pIC50 by setting is: (read-out: IC50 of EphB4 kinase inhibition) 6.57; under setting [1], over 4.60. `Cc1ccc(O)cc1Nc1ccnc2ccc3ccsc3c12` [Example 3, 4-Methyl-3-(thieno[2,3-f]quinolin-9-ylamino)-phenol]: the pIC50 under setting [1] was over 4.60. In the case of `Cc1ccc(O)cc1Nc1ccnc2ccc3c(c12)CCS3(=O)=O` [Example 4, 3-(3,3-Dioxo-2,3-dihydro-1H-3λ^6-thieno[3,2-f]quinolin-9-ylamino)-4-methyl-phenol], the pIC50 under setting [1] is over 4.60. The same measure, in the same setting: for `O=S1(=O)CCc2c1ccc1nccc(Nc3cccc(O)c3)c21` [Example 5, 3-(3,3-Dioxo-2,3-dihydro-1H-3λ^6-thieno[3,2-f]quinolin-9-ylamino)-phenol] the value was over 4.60. Still for that read-out and setting: the figure for `Cc1ccc(Nc2ccnc3ccc4c(c23)CCS4(=O)=O)cc1O` [Example 15, 5-(3,3-Dioxo-2,3-dihydro-1H-3λ^6-thieno[3,2-f]quinolin-9-ylamino)-2-methylphenol] is over 4.60.
